Measured values: PMC8286840, “Identifying SARS-CoV-2 antiviral compounds by screening for small molecule inhibitors of Nsp3 papain-like protease” (Biochemical Journal, 2021)
Structures can show the parent of a compound that is named as a salt. Where two headings read alike, the source gives them in different places.

Experiments:
[1] = biological target: T1, SARS-CoV-2 PLpro (nsp3 1564–1878) (Severe acute respiratory syndrome coronavirus 2, UniProt P0DTD1); experiment: biochemical; parameters: FRET-quenched peptide (Pro3) cleavage by PLpro, 10 min pre-incubation, slope over 20 min, normalised to no-compound control; conditions: high concentration screen, read-out: % of control remaining
[2] = biological target: T1, SARS-CoV-2 PLpro (nsp3 1564–1878); experiment: biochemical; parameters: FRET-quenched peptide (Pro3) cleavage by PLpro, 10 min pre-incubation, slope over 20 min, normalised to no-compound control; conditions: low concentration screen, read-out: % of control remaining

## CC(c1cc2ccccc2s1)N(O)C(N)=O (stereo not shown) [Zileuton]
[1]; Well no.=1764
  remaining activity at 3.75 µM: 100%
[2]; Well no.=1764
  remaining activity at 1.25 µM: 102%

## C=C1CC[C@H](O)C/C1=C/C=C1\CCC[C@]2(C)[C@@H]([C@H](C)/C=C/[C@H](C)C(C)C)CC[C@@H]12 [Vitamin D2 (Ergocalciferol)]
[1]; Well no.=4684
  remaining activity at 3.75 µM: 100%
[2]; Well no.=4684
  remaining activity at 1.25 µM: 99.3%

## C[C@@H](OC[C@@]1(c2ccccc2)CC[C@]2(CCC(=O)N2)CN1)c1cc(C(F)(F)F)cc(C(F)(F)F)c1 [Rolapitant]
[1]; Well no.=7469
  remaining activity at 3.75 µM: 96.2%
[2]; Well no.=7469
  remaining activity at 1.25 µM: 104%

## O=C(O)CCC(=O)c1ccc(-c2ccccc2)cc1 [Fenbufen]
[1]; Well no.=2078
  remaining activity at 3.75 µM: 102%
[2]; Well no.=2078
  remaining activity at 1.25 µM: 100%

## Cn1cc(C2=C(c3cn(C4CCN(Cc5ccccn5)CC4)c4ccccc34)C(=O)NC2=O)c2ccccc21 [Enzastaurin (LY317615)]
[1]; Well no.=5003
  remaining activity at 3.75 µM: 87.9%
[2]; Well no.=5003
  remaining activity at 1.25 µM: 93%

## O=C1NC(=O)C(c2ccccc2)(c2ccccc2)N1 [Phenytoin]
[1]; Well no.=1643
  remaining activity at 3.75 µM: 100%
[2]; Well no.=1643
  remaining activity at 1.25 µM: 99.6%

## C[C@H]1C(=O)O[C@@H]2CCN3CC=C(COC(=O)[C@](C)(O)[C@]1(C)O)[C@H]23 [Monocrotaline]
[1]; Well no.=3777
  remaining activity at 3.75 µM: 103%
[2]; Well no.=3777
  remaining activity at 1.25 µM: 102%

## CCCCc1oc2ccc(NS(C)(=O)=O)cc2c1C(=O)c1ccc(OCCCN(CCCC)CCCC)cc1 [Dronedarone]
[1]; Well no.=8285
  remaining activity at 3.75 µM: 94.4%
[2]; Well no.=8285
  remaining activity at 1.25 µM: 100%

## Nc1ccn([C@@H]2O[C@H](COP(=O)(O)O)[C@@H](O)[C@H]2O)c(=O)n1 [5'-Cytidylic acid]
[1]; Well no.=8883
  remaining activity at 3.75 µM: 86.7%
[2]; Well no.=8883
  remaining activity at 1.25 µM: 83.4%

## CC(=O)Oc1cc(C(C)C)c(OCCN(C)C)cc1C [Moxisylyte (hydrochloride)]
[1]; Well no.=7424
  remaining activity at 3.75 µM: 97.7%
[2]; Well no.=7424
  remaining activity at 1.25 µM: 94%

## CCc1c(C)[nH]c2c1C(=O)C(CN1CCOCC1)CC2 (stereo not shown) [Molindone (hydrochloride)]
[1]; Well no.=6905
  remaining activity at 3.75 µM: 93.3%
[1]; Well no.=7928
  remaining activity at 3.75 µM: 98.2%
[2]; Well no.=6905
  remaining activity at 1.25 µM: 98.8%
[2]; Well no.=7928
  remaining activity at 1.25 µM: 95.5%

## O=C(/C=C/c1cccnc1)NCCCCC1CCN(C(=O)c2ccccc2)CC1 [(2E)-N-[4-(1-benzoyl-4-piperidinyl)butyl]-3-(3-pyridinyl)-2-propenamide hydrochloride hydrate]
[1]; Well no.=5694
  remaining activity at 3.75 µM: 92.8%
[2]; Well no.=5694
  remaining activity at 1.25 µM: 97.8%

## O=C(O)CCCC[C@@H]1SC[C@@H]2NC(=O)N[C@@H]21 [Biotin (Vitamin B7)]
[1]; Well no.=5359
  remaining activity at 3.75 µM: 95.3%
[2]; Well no.=5359
  remaining activity at 1.25 µM: 98.1%

## CN(Cc1ccc(C(C)(C)C)cc1)Cc1cccc2ccccc12 [Butenafine]
[1]; Well no.=1876
  remaining activity at 3.75 µM: 94.3%
[2]; Well no.=1876
  remaining activity at 1.25 µM: 97.2%

## CN1CCC2=C(C1)c1ccccc1Cc1ccccc12 [Setiptiline (maleate)]
[1]; Well no.=6907
  remaining activity at 3.75 µM: 101%
[2]; Well no.=6907
  remaining activity at 1.25 µM: 101%

## c1ccc(C(OC2CCN(CCCc3nn[nH]n3)CC2)c2ccccc2)cc1 [4-(benzhydryloxy)-1-[3-(1H-tetraazol-5-yl)propyl]piperidine]
[1]; Well no.=6014
  remaining activity at 3.75 µM: 93.3%
[2]; Well no.=6014
  remaining activity at 1.25 µM: 95.5%

## O=c1[nH]oc2c1CCNC2 [THIP hydrochloride]
[1]; Well no.=1328
  remaining activity at 3.75 µM: 97.2%
[2]; Well no.=1328
  remaining activity at 1.25 µM: 96.3%

## N#Cc1ccc2[nH]cc(CCCCN3CCN(c4ccc5oc(C(N)=O)cc5c4)CC3)c2c1 [Vilazodone (Hydrochloride)]
[1]; Well no.=6286
  remaining activity at 3.75 µM: 106%
[2]; Well no.=6286
  remaining activity at 1.25 µM: 105%

## CN1CCN(C2=Nc3ccccc3Oc3ccc(Cl)cc32)CC1 [Loxapine (succinate)]
[1]; Well no.=6172
  remaining activity at 3.75 µM: 87.5%
[2]; Well no.=6172
  remaining activity at 1.25 µM: 93.4%

## CN(C)C(=N)NC(=N)N [Metformin]
[1]; Well no.=1627
  remaining activity at 3.75 µM: 103%
[2]; Well no.=1627
  remaining activity at 1.25 µM: 103%

## C1COC(NC(C2CC2)C2CC2)=N1 [Rilmenidine hemifumarate]
[1]; Well no.=1450
  remaining activity at 3.75 µM: 99.9%
[2]; Well no.=1450
  remaining activity at 1.25 µM: 101%

## CC(=O)N[C@@H](CC(C)C)C(=O)O [N-Acetyl-L-leucine]
[1]; Well no.=7596
  remaining activity at 3.75 µM: 98.8%
[2]; Well no.=7596
  remaining activity at 1.25 µM: 97%

## COc1cccc(-c2ccc(NC(=O)C3=C(C(=O)O)CCC3)c(F)c2)c1 [Vidofludimus]
[1]; Well no.=8524
  remaining activity at 3.75 µM: 96.6%
[2]; Well no.=8524
  remaining activity at 1.25 µM: 99.5%

## CC(=O)NCC(=O)O [N-Acetylglycine]
[1]; Well no.=6779
  remaining activity at 3.75 µM: 96%
[2]; Well no.=6779
  remaining activity at 1.25 µM: 96.3%

## CN(C)CCc1ccc(O)cc1 [Hordenine sulfate]
[1]; Well no.=3106
  remaining activity at 3.75 µM: 100%
[2]; Well no.=3106
  remaining activity at 1.25 µM: 97.9%

## OCCOCCN1CCN(C(c2ccccc2)c2ccc(Cl)cc2)CC1 (stereo not shown) [Hydroxyzine 2HCl]
[1]; Well no.=5082
  remaining activity at 3.75 µM: 99.9%
[2]; Well no.=5082
  remaining activity at 1.25 µM: 98.5%

## CCn1c2ccccc2c2cc(Nc3ccnc(NCCCN4CCOCC4)n3)ccc21 [EHop-016]
[1]; Well no.=6234
  remaining activity at 3.75 µM: 97.9%
[2]; Well no.=6234
  remaining activity at 1.25 µM: 98.3%

## O=C(Nc1ccc(Cl)cc1)C1CCCN(C(=O)c2cccc(-c3ccco3)c2)C1 (stereo not shown) [CCG-203971]
[1]; Well no.=6005
  remaining activity at 3.75 µM: 101%
[2]; Well no.=6005
  remaining activity at 1.25 µM: 103%

## C[C@@H]1O[C@@H](O[C@H]2[C@H](Oc3cc(O)c(C(=O)CCc4ccc(O)cc4)c(O)c3)O[C@H](CO)[C@@H](O)[C@@H]2O)[C@H](O)[C@H](O)[C@H]1O [Naringin Dihydrochalcone]
[1]; Well no.=8148
  remaining activity at 3.75 µM: 97.1%
[2]; Well no.=8148
  remaining activity at 1.25 µM: 106%

## CCOC(=O)[C@H](CCc1ccccc1)N[C@@H](C)C(=O)N1C(=O)N(C)C[C@H]1C(=O)O [Imidapril hydrochloride]
[1]; Well no.=5696
  remaining activity at 3.75 µM: 92.9%
[2]; Well no.=5696
  remaining activity at 1.25 µM: 91.8%

## O=c1[nH]c2ccccc2n1C1CCN(Cc2ccc(-c3[nH]c4cc5ncnc5cc4nc3-c3ccccc3)cc2)CC1 [Akt-I-1,2]
[1]; Well no.=2755
  remaining activity at 3.75 µM: 98.5%
[2]; Well no.=2755
  remaining activity at 1.25 µM: 101%

## O=C(c1cc(C2CC2)on1)N(C1CCCCC1)C1CCCCC1 [CYM-5541]
[1]; Well no.=6224
  remaining activity at 3.75 µM: 94.5%
[2]; Well no.=6224
  remaining activity at 1.25 µM: 97.7%

## COc1cc2c3cc1Oc1cc(ccc1O)C[C@@H]1c4c(cc(OC)c(O)c4Oc4ccc(cc4)C[C@@H]3N(C)CC2)CC[N+]1(C)C [(+)-Tubocurarine chloride]
[1]; Well no.=3471
  remaining activity at 3.75 µM: 104%
[2]; Well no.=3471
  remaining activity at 1.25 µM: 103%

## COc1ccc(S(=O)(=O)Nc2ccccc2CN(C)C/C=C/c2ccc(Cl)cc2)cc1 [KN-92]
[1]; Well no.=2483
  remaining activity at 3.75 µM: 94.2%
[2]; Well no.=2483
  remaining activity at 1.25 µM: 96.3%
